From patent US20100093811A1 (priority 2007, published 2010)
pIC50: −log10 of the molar value. Counter-ions that a name gives are not always drawn. Like-named read-outs stand apart in the source and are kept apart here.

Columns and labels:
[1] = test system: acute HIV infection of T-lymphoid cells; test: Assay for inhibition of HIV replication (spread assay); assay type: cell-based, HIV-1; conditions: Human immunodeficiency virus 1, T-lymphoid; read-out: Spread - IC95
Experimental: • Assay for Inhibition of HIV Replication
Assays for the inhibition of acute HIV infection of T-lymphoid cells were conducted in accordance with Vacca, J. P. et al., Proc. Natl. Acad. Sci. USA 1994, 91: 4096.

[2] = biological target: wild-type HIV-1 protease (Human immunodeficiency virus type 1 group M subtype B, UniProt P04585); test: Assay for inhibition of microbial expressed HIV protease; assay type: biochemical
Experimental: Assay for Inhibition of Microbial Expressed HIV Protease
Inhibition studies of the reaction of the protease (which was expressed in Eschericia coli) with a peptide substrate [Val-Ser-Gln-Asn-(betanapthyl)Ala-Pro-Ile-Val]. The inhibitor is first preincubated with the enzyme in assay buffer (50 mM sodium acetate, pH 5.5, 100 mM NaCl, and 0.1% BSA) for 30 minutes at room temperature. Substrate is added to 440 micromolar in a total volume of 80 microliters containing 5 picomolar HIV-1 protease, and the reaction is incubated for 1 hour at 30° C. The reaction is quenched by addition of 120 microliters of 10% phosphoric acid, and product formation is determined after separation of product and substrate on a Vydac C18 column connected to an Alliance high performance liquid chromatography system (Waters Corporation). The extent of inhibition of the reaction is determined from the peak area of the products.

[3] = wild-type HIV-1 protease expressed in E. coli, peptide substrate, pH 5.5, read-out: Enzyme Inhibition - IC50

SMILES | IC95 [1] [nM] | pIC50 [2, 3] | pIC50 [2]
COC(=O)N[C@@H](Cc1ccccc1Br)C(=O)N[C@@H](C)CCC[C@@H](CO)N(CC(C)C)S(=O)(=O)c1ccc(CO)cc1 [Example G12, 2-bromo-N-{(1S,5S)-6-hydroxy-5-[{[4-(hydroxymethyl)phenyl]sulfonyl}(isobutyl)amino]-1-methylhexyl}-Nα-(methoxycarbonyl)-L-phenylalaninamide] | 15 | 10.26 | 
CCCN([C@H](CO)CCC[C@H](CC)NC(=O)[C@H](Cc1ccccc1Cl)NC(=O)OC)S(=O)(=O)c1ccc(N)cc1 [Example F8, N-{(1S,5S)-5-[[(4-aminophenyl)sulfonyl](propyl)amino]-1-ethyl-6-hydroxyhexyl}-2-chloro-Nα-(methoxycarbonyl)-L-phenylalaninamide] | 249 | 8.84 | 
COC(=O)N[C@H](C(=O)N[C@H](CCC[C@@H](CO)N(CC(C)C)S(=O)(=O)c1ccc(CO)cc1)C(F)(F)F)C(c1ccccc1)c1ccccc1 [Example J30, N-[(1R,5S)-6-hydroxy-5-[{[4-(hydroxymethyl)phenyl]sulfonyl}(isobutyl)amino]-1-(trifluoromethyl)hexyl]-Nα-(methoxycarbonyl)-β-phenyl-L-phenylalaninamide] | 21 | 11.00 | 
CC[C@@H](CCC[C@@H](CO)N(CC(C)C)S(=O)(=O)c1ccc(N)cc1)NC(=O)[C@@H](NC(=O)OC)C(c1ccccc1)c1ccccc1 [Example D11, N-{(1S,5S)-5-[[(4-aminophenyl)sulfonyl](isobutyl)amino]-1-ethyl-6-hydroxyhexyl}-Nα-(methoxycarbonyl)-β-phenyl-L-phenylalaninamide] | 18 | 9.96 | 
COC(=O)N[C@H](C(=O)N[C@H](CCC[C@@H](CO)N(CCC(C)C)S(=O)(=O)c1ccc(N)cc1)C(C)C)C(c1ccccc1)c1ccccc1 [Example D10, N-{(1R,5S)-5-[[(4-aminophenyl)sulfonyl](3-methylbutyl)amino]-6-hydroxy-1-isopropylhexyl}-Nα-(methoxycarbonyl)-β-phenyl-L-phenylalaninamide] | 37 | 10.00 | 
CC[C@@H](CCC[C@@H](CO)N(C(C)C)S(=O)(=O)c1ccc(CO)cc1)NC(=O)[C@@H](NC)C(c1ccccc1)c1ccccc1 [Example J35, N-{(1S,5S)-1-ethyl-6-hydroxy-5-[{[4-(hydroxymethyl)phenyl]sulfonyl}(isopropyl)amino]hexyl}-Nα-methyl-β-phenyl-L-phenylalaninamide hydrochloride] | 25 |  | 9.24
COC(=O)N[C@@H](Cc1ccccc1Cl)C(=O)N[C@@H](C)CCC[C@@H](CO)N(C)S(=O)(=O)c1ccc(CO)cc1 [Example G8, 2-chloro-N-{(1S,5S)-6-hydroxy-5-[{[4-(hydroxymethyl)phenyl]sulfonyl}(methyl)amino]-1-methylhexyl}-Nα-(methoxycarbonyl)-L-phenylalaninamide] | 191 | 8.49 | 
COC(=O)N[C@H](C(=O)N[C@H](C)CCC[C@@H](CO)N(CCC(C)C)S(=O)(=O)c1ccc(N)cc1)C(c1ccccc1)c1ccccc1 (single isomer, unassigned) [D1(S)] | 7 | 11.10 | 
CN[C@H](C(=O)N[C@H](CCC[C@@H](CO)N(CCC(C)C)S(=O)(=O)c1ccc(CO)cc1)C1CC1)C(c1ccccc1)c1ccccc1 [Example J28, N-{(1R,5S)-1-cyclopropyl-6-hydroxy-5-[{[4-(hydroxymethyl)phenyl]sulfonyl}(3-methylbutyl)amino]hexyl}-Nα-methyl-β-phenyl-L-phenylalaninamide] | 8 | 11.00 | 
COC(=O)N[C@@H](Cc1ccccc1Cl)C(=O)N[C@H](CCC[C@@H](CO)N(CCC(C)C)S(=O)(=O)c1ccc(CO)cc1)C1CC1 [Example J14, 2-chloro-N-{(1R,5S)-1-cyclopropyl-6-hydroxy-5-[{[4-(hydroxymethyl)phenyl]sulfonyl}(3-methylbutyl)amino]hexyl}-Nα-(methoxycarbonyl)-L-phenylalaninamide] | 63 | 9.74 | 
CC[C@@H](CCC[C@@H](CO)N(C(C)C)S(=O)(=O)c1ccc(C(C)=O)cc1)NC(=O)[C@@H](NC(=O)OC)C(c1ccccc1)c1ccccc1 [Example K3, N-{(1S,5S)-5-[[(4-acetylphenyl)sulfonyl](isopropyl)amino]-1-ethyl-6-hydroxyhexyl}-Nα-(methoxycarbonyl)-β-phenyl-L-phenylalaninamide] | 112 | 9.03 | 
COC(=O)N[C@H](C(=O)NC(C)(C)CCC[C@@H](CO)N(C(C)C)S(=O)(=O)c1ccc(N)cc1)C(c1ccccc1)c1ccccc1 [Example L8] | 264 | 9.57 | 
C#C[C@@H](CCC[C@@H](CO)N(CCC(C)C)S(=O)(=O)c1ccc(CO)cc1)NC(=O)[C@@H](NC(=O)OC)C(c1ccccc1)c1ccccc1 [Example J13, N-{(1R,5S)-1-ethynyl-6-hydroxy-5-[{[4-(hydroxymethyl)phenyl]sulfonyl}(3-methylbutyl)amino]hexyl}-Nα-(methoxycarbonyl)-β-phenyl-L-phenylalaninamide] | 6 | 11.00 | 
CC[C@@H](CCC[C@@H](CO)N(CCC(C)C)S(=O)(=O)c1ccc(CO)cc1)NC(=O)[C@@H](NC(=O)OC)C(c1ccccc1)c1ccccc1 [Example J1, N-{(1S,5S)-1-ethyl-6-hydroxy-5-[{[4-(hydroxymethyl)phenyl]sulfonyl}(3-methylbutyl)amino]hexyl}-Nα-(methoxycarbonyl)-β-phenyl-L-phenylalaninamide] | 9 | 10.82 | 
C=C[C@H](CCC[C@@H](CO)N(CCC(C)C)S(=O)(=O)c1ccc(CO)cc1)NC(=O)[C@@H](NC(=O)OC)C(c1ccccc1)c1ccccc1 [Example J11, N-{(1S,5S)-6-hydroxy-5-[{[4-(hydroxymethyl)phenyl]sulfonyl}(3-metbylbutyl)amino]-1-vinylhexyl}-Nα-(methoxycarbonyl)-β-phenyl-L-phenylalaninamide] | 107 | 9.73 | 
COC(=O)N[C@H](C(=O)N[C@@H](C)CCC[C@@H](CO)N(C(C)C)S(=O)(=O)c1ccc([C@H](C)O)cc1)C(c1ccccc1)c1ccccc1 [Example K4, N-{(1S,5S)-6-hydroxy-5-[({4-[(1S)-1-hydroxyethyl]phenyl}sulfonyl)(isopropyl)amino]-1-methylhexyl}-Nα-(methoxycarbonyl)-β-phenyl-L-phenylalaninamide] | 19 | 10.82 | 
COC(=O)N[C@H](C(=O)NC(C)(C)CCC[C@@H](CO)N(CCC(C)C)S(=O)(=O)c1ccc(N)cc1)C(c1ccccc1)c1ccccc1 [Example L4, N-{(5S)-5-[[(4-aminophenyl)sulfonyl](3-methylbutyl)amino]-6-hydroxy-1,1-dimethylhexyl}-Nα-(methoxycarbonyl)-β-phenyl-L-phenylalaninamide] | 41 | 11.00 | 
CCCN([C@H](CO)CCC[C@H](CC)NC(=O)[C@@H](NC(=O)OC)C(c1ccccc1)c1ccccc1)S(=O)(=O)c1ccc(N)cc1 [Example F5, N-{(1S,5S)-5-[[(4-aminophenyl)sulfonyl](propyl)amino]-1-ethyl-6-hydroxyhexyl}-Nα-(methoxycarbonyl)-β-phenyl-L-phenylalaninamide] | 54 | 9.79 | 
CC[C@@H](CCC[C@@H](CO)N(CCC(C)C)S(=O)(=O)c1ccc(CO)cc1)NC(=O)[C@@H](NC)C(c1ccccc1)c1ccccc1 [Example J27, N-{(1S,5S)-1-ethyl-6-hydroxy-5-[{[4-(hydroxymethyl)phenyl]sulfonyl}(3-methylbutyl)amino]hexyl}-Nα-methyl-β-phenyl-L-phenylalaninamide] | 6 | 10.60 | 
CC(C)N([C@H](CO)CCCC(C)(C)NC(=O)[C@@H](N)Cc1ccccc1Cl)S(=O)(=O)c1ccc(N)cc1 [Example L10, N-{(5S)-5-[[(4-aminophenyl)sulfonyl](isopropyl)amino]-6-hydroxy-1,1-dimethylhexyl}-2-chloro-L-phenylalaninamide hydrochloride] | 241 |  | 8.49
COC(=O)N[C@H](C(=O)N[C@H](CCC[C@@H](CO)N(C)S(=O)(=O)c1ccc(N)cc1)C(F)(F)F)C(c1ccccc1)c1ccccc1 [Example H6, N-[(1R,5S)-5-[[(4-aminophenyl)sulfonyl](methyl)amino]-6-hydroxy-1-(trifluoromethyl)hexyl]-Nα-(methoxycarbonyl)-β-phenyl-L-phenylalaninamide] | 138 |  | 8.99
CC[C@@H](CCC[C@@H](CO)N(CCCF)S(=O)(=O)c1ccc(N)cc1)NC(=O)[C@@H](NC(=O)OC)C(c1ccccc1)c1ccccc1 [Example D15, N-{(1S,5S)-5-[[(4-aminophenyl)sulfonyl](3-fluoropropyl)amino]-1-ethyl-6-hydroxyhexyl}-Nα-(methoxycarbonyl)-β-phenyl-L-phenylalaninamide] | 39 | 9.57 | 
COC(=O)N[C@H](C(=O)N[C@@H](C)CCC[C@@H](CO)N(C(C)C)S(=O)(=O)c1ccc(N)cc1)C(c1ccccc1)c1ccccc1 [Example F1, N-{(1S,5S)-5-[[(4-aminophenyl)sulfonyl](isopropyl)amino]-6-hydroxy-1-methylhexyl}-Nα-(methoxycarbonyl)-β-phenyl-L-phenylalaninamide] | 32 |  | 
